We go through 23 compounds from US6710063B1, “Activators of PPAR delta” (SmithKline Beecham Corporation, priority 1999, dated 2004).

Structures are written as SMILES. Counter-ions that a name gives are not always drawn. Some results are limits rather than exact numbers.

The test system of the first data set is obese rhesus monkeys. The data set is described as follows: 6-month dose escalation study in obese rhesus monkeys. The format is in vivo, rhesus monkey. The following applies: 3 mg/kg dose bid, in each monkey. The protocol:
The compound of Example 66 was examined in a Rhesus model. […] HDLc increased by more than 40% in each monkey at the 3 mg/kg dose. […] Serum TG concentrations decreased by more than 30% in each monkey. Fasting insulin decreased by more than 20% in each monkey. Serum fibrinogen concentrations decreased by 10 20%, with peak activity observed at doses of 0.3 and 1 mg/kg.
Consider `Cc1cc(SCc2sc(-c3ccc(C(F)(F)F)cc3)nc2C)ccc1OCC(=O)O` [Example 66, 2-{2-Methyl-4-[({4-methyl-2-[4-(trifluoromethyl)phenyl]-1,3-thiazol-5-yl}methyl)sulfanyl]phenoxy}acetic Acid], for which the HDLc increase result was “more than 40%”.

Still in this data set, the particulars now being: 0.1, 0.3, 1, and 3 mg/kg bid for 28 days each.
On to `Cc1cc(SCc2sc(-c3ccc(C(F)(F)F)cc3)nc2C)ccc1OCC(=O)O` [Example 66, 2-{2-Methyl-4-[({4-methyl-2-[4-(trifluoromethyl)phenyl]-1,3-thiazol-5-yl}methyl)sulfanyl]phenoxy}acetic Acid], for which the “HDLc change with each dose” value is “raised HDLc with each dose”.

The same data set, now with this note: dose escalation 0.1-3 mg/kg bid.
In the case of `Cc1cc(SCc2sc(-c3ccc(C(F)(F)F)cc3)nc2C)ccc1OCC(=O)O` [Example 66, 2-{2-Methyl-4-[({4-methyl-2-[4-(trifluoromethyl)phenyl]-1,3-thiazol-5-yl}methyl)sulfanyl]phenoxy}acetic Acid], the “LDLc particle composition (NMR analysis of lipoprotein particles)” value was “shift in the LDLc composition to fewer and larger LDLc particles”.

The data set is the same for the next values; noted with them: in each monkey.
Consider `Cc1cc(SCc2sc(-c3ccc(C(F)(F)F)cc3)nc2C)ccc1OCC(=O)O` [Example 66, 2-{2-Methyl-4-[({4-methyl-2-[4-(trifluoromethyl)phenyl]-1,3-thiazol-5-yl}methyl)sulfanyl]phenoxy}acetic Acid], for which the Fasting insulin decrease entry is “more than 20%” and the “Serum TG concentration decrease” value is “more than 30%”.

System in another data set: not listed separately
Kind of data set: Stability at ambient temperature (observation on isolated compound).
Conditions: not given
In kind it is physicochemical. The protocol: Example 37 was hydrolyzed as described in general procedure 3 to afford the title compound (45%) as a yellow solid: mp 124-126° C.; 1H-NMR (acetone-d6) δ 2.47 (s, 3H), 3.09 (s, 3H), 408(s, 2H), 5.25 (s, 2H), 6.70 (d, 2H), 6.91 (d, 2H), 7.83 (d, 2H), 8.16 (d, 2H); MS m/z 437(M+1)−.
For `Cc1nc(-c2ccc(C(F)(F)F)cc2)sc1COc1ccc(N(C)CC(=O)O)cc1` [Example 38, N-Methyl-N-[4-(2-[4-Trifluromethylphenyl]-4-methyl-thiazole-5-ylmethoxy)phenyl]-acetic Acid], the “stability at ambient temperature” value was “unstable and gradually decomposed at ambient temperature”.

A further data set deals with T1, hPPARδ (Homo sapiens, UniProt Q03181).
T1 construct: polyHis; made in house; host or cells: E. coli
T1 sequence (Q03181 211-439 limits assumed): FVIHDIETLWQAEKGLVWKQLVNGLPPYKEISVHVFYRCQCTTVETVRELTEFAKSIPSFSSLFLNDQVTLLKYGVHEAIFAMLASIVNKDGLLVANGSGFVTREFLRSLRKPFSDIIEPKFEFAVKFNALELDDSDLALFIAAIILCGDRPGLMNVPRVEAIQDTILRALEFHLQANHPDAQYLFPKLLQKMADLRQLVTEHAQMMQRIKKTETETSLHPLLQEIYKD
Kind of data set: Scintillation Proximity Assay (SPA) binding to PPAR ligand binding domain. The note with it: radioligand GW 2433 for PPARδ, receptor subtype not named in the result sentence, read-out: Apparent pKi (converted). As to the method: Compounds were tested for their ability to bind to hPPARγ hPPARα, or PPARδ using a Scintillation Proximity Assay (SPA). The PPAR ligand binding domain (LBD) was expressed in E. coli as polyHis tagged fusion proteins and purified. The LBD was then labeled with biotin and immobilized on streptavidin-modified scintillation proximity beads. The beads were then incubated with a constant amount of the appropriate radio ligand (^3H-BRL 49653 for PPARγ, 2-(4-(2-(2,3-Ditritio-1-heptyl-3-(2,4-difluorophenyl)ureido)ethyl)phenoxy)-2-methylbutanoic acid (described in WO/008002) for hPPARα and GW 2433 (see Brown, P. J et al. Chem. Biol. 1997, 4, 909-918. For the structure and synthesis of this ligand) for PPARδ) and variable concentrations of test compound, and after equilibration the radioactivity bound to the beads was measured by a scintillation counter. The amount of nonspecific binding, as assessed by control wells containing 50 μM of the corresponding unlabelled ligand, was subtracted from each data point. For each compound tested, plots of ligand concentration vs. CPM of radio ligand bound were constructed and apparent Ki values were estimated from nonlinear least squares fit of the data assuming simple competitive binding. […]
Background: SPA uses beads or plates that emit light when radiolabelled molecules are held near them.
For the compound `COC(=O)COc1ccc(SCc2sc(-c3ccc(C(F)(F)F)cc3)nc2C)cc1` [Example 61, Methyl 2-{4-[({4-Methyl-2-[4-(trifluoromethyl)phenyl]-1,3-thiazol-5-yl}methyl)sulfanyl]phenoxy}acetate], the Ki was above 316 nM.

System in a further data set: not given
Test: not given
Conditions: not given
By melting point is commonly meant the temperature of the solid-liquid transition. For `Cc1nc(-c2ccc(C(F)(F)F)cc2)sc1CSc1ccc(CC(=O)O)cc1` (as salt: salt) [Example 48, 2-{4-[({4-Methyl-2-[4-(trifluoromethyl)phenyl]-1,3-thiazol-5-yl}methyl)sulfanyl]phenyl}acetic Acid], the melting point lay within 202 to 203 °C. `Cc1nc(-c2ccc(C(F)(F)F)cc2)sc1COc1ccc(CC(=O)O)cc1Cl` [Example 36, 2-[3-Chloro-4-({4-methyl-2-[4-(trifluoromethyl)phenyl]-1,3-thiazol-5-yl}methoxy)phenyl]acetic Acid]: the melting point was in the range of 126 to 127 °C. The compound `COc1cc(CCC(=O)O)ccc1OCc1sc(-c2ccc(C(F)(F)F)cc2)nc1C` [Example 6, 3-[3-Methoxy-4-({4-methyl-2-[4-(trifluoromethyl)phenyl]-1,3-thiazol-5-yl}methoxy)phenyl]propanoic Acid] displayed a melting point of 150 to 152 °C. In turn, `Cc1nc(-c2ccc(C(F)(F)F)cc2)sc1CCOc1ccc(CCC(=O)O)cc1` [Example 14] gave a melting point of 128 to 130 °C. For `Cc1nc(-c2ccc(C(F)(F)F)cc2)sc1CSc1ccc(OCC(=O)O)cc1` [Example 62, 2-{4-[({4-Methyl-2-[4-(trifluoromethyl)phenyl]-1,3-thiazol-5-yl}methyl)sulfanyl]phenoxy}acetic Acid], the melting point was found to be 190 °C. Compound `Cc1nc(-c2ccc(C(F)(F)F)cc2)oc1COc1ccc(SCC(=O)O)cc1` [Example 44, 2-{[4-({4-Methyl-2-[4-(trifluoromethyl)phenyl]-1,3-oxazol-5-yl}methoxy)phenyl]sulfanyl}acetic Acid] had a melting point of 138 to 140 °C. In turn, `Cc1nc(-c2ccc(C(F)(F)F)cc2)oc1COc1ccc(/C=C/C(=O)O)cc1` [Example 22, (E)-3-[4-({4-Methyl-2-[4-(trifluoromethyl)phenyl]-1,3-oxazol-5-yl}methoxy)phenyl]-2-propenoic Acid] returned a melting point of 193 °C. For the compound `Cc1cc(SCc2sc(-c3ccc(Br)cc3)nc2C)ccc1OCC(=O)O` [Example 69, 2-{2-Methyl-4-[({4-methyl-2-[4-bromophenyl]-1,3-thiazol-5-yl}methyl)sulfanyl]phenoxy}acetic Acid], the melting point was above 250 °C. Regarding `Cc1cc(SCc2sc(-c3ccc(Cl)c(Cl)c3)nc2C)ccc1OCC(=O)O` [Example 75, 2-{2-Methyl-4-[({4-methyl-2-[3,4-dichlorophenyl]-1,3-thiazol-5-yl}methyl)sulfanyl]phenoxy}acetic Acid], the melting point is 143 °C. `Cc1cc(SCc2sc(-c3ccc(Cl)cc3)nc2C)ccc1OCC(=O)O` [Example 71, 2-{2-Methyl-4-[({4-methyl-2-[4chlorophenyl]-1,3-thiazol-5-yl}methyl)sulfanyl]phenoxy}acetic Acid] yielded a melting point of 109 °C. On to `Cc1cc(SCc2sc(-c3ccc(F)cc3)nc2C)ccc1OCC(=O)O` [Example 73, 2-{2-Methyl-4-[({4-methyl-2-[4-fluorophenyl]-1,3-thiazol-5-yl}methyl)sulfanyl]phenoxy}acetic Acid], for which the melting point was 45 to 46 °C. `Cc1nc(-c2ccc(C(F)(F)F)cc2)oc1COc1ccc(CC(=O)O)cc1Cl` (as salt: salt) [Example 50, 2-[3-Chloro-4-({4-methyl-2-[4-(trifluoromethyl)phenyl]-1,3-oxazol-5-yl}methoxy)phenyl]acetic Acid]: the melting point lay in the range of 189 to 191 °C. The same measure, in the same setting: to `Cc1nc(-c2ccc(C(F)(F)F)cc2)sc1COc1ccc(N(C)CC(=O)O)cc1` [Example 38, N-Methyl-N-[4-(2-[4-Trifluromethylphenyl]-4-methyl-thiazole-5-ylmethoxy)phenyl]-acetic Acid] belongs 124 to 126 °C; to `Cc1sc(-c2ccc(C(F)(F)F)cc2)nc1CCOc1ccc(CCC(=O)O)cc1` [Example 10, 3-[4-(2-{5-Methyl-2-[4-(trifluoromethyl)phenyl]-1,3-thiazol-4-yl}ethoxy)phenyl]propanoic Acid], 142 to 147 °C. In the case of `Cc1nc(-c2cccc(C(F)(F)F)c2)oc1COc1ccc(CCC(=O)O)cc1` [Example 16, 3-[4-({4-Methyl-2-[3-(trifluoromethyl)phenyl]-1,3-oxazol-5-yl}methoxy)phenyl]propanoic Acid], the melting point was 134 to 135 °C. `Cc1cc(SCc2sc(-c3ccc(F)c(F)c3)nc2C)ccc1OCC(=O)O` [Example 77, 2-{2-Methyl-4-[({4-methyl-2-[3,4-difluorophenyl]-1,3-thiazol-5-yl}methyl)sulfanyl]phenoxy}acetic Acid] gave a melting point of 119 °C.

On to `Cc1cc(SCc2sc(-c3cc(C(F)(F)F)cc(C(F)(F)F)c3)nc2C)ccc1OCC(=O)O` [Example 79, 2-{2-Methyl-4-[({4-methyl-2-[3,5-bis(trifluoromethyl)phenyl]-1,3-thiazol-5-yl}methyl)sulfanyl]phenoxy}acetic Acid], for which the melting point was determined as 178 °C.

In turn, `Cc1nc(-c2ccc(C(F)(F)F)cc2)sc1CCOc1ccc(CC(=O)O)cc1` [Example 32] came in with a melting point of 128 to 130 °C. As for `COc1cc(CCC(=O)O)ccc1OCc1oc(-c2ccc(C(F)(F)F)cc2)nc1C` [Example 24], the melting point lay within 162 to 163 °C.

Turning to `COc1cc(CC(=O)O)ccc1SCc1sc(-c2ccc(C(F)(F)F)cc2)nc1C` (as salt: salt) [Example 52, 2-{3-Methoxy-4-[({4-methyl-2-[4-(trifluoromethyl)phenyl]-1,3-thiazol-5-yl}methyl)sulfanyl]phenyl}acetic Acid], the melting point was in the range of 181 to 182 °C. In turn, `Cc1cc(OCc2sc(-c3ccc(C(F)(F)F)cc3)nc2C)ccc1OCC(=O)O` [Example 54, 2-[2-Methyl-4-({4-methyl-2-[4-(trifluoromethyl)phenyl]-1,3-thiazol-5-yl}methoxy)phenoxy]acetic Acid] came in with a melting point of 174 to 176 °C.
